Test results reported in ChEMBL document CHEMBL3885881, “DrugMatrix”.

Species: Rattus norvegicus
Test: DrugMatrix - Regimen: Daily Repeat
Format: toxicity, organism-based, Sprague-Dawley
Parameters: regimen Daily Repeat, gender Male, age 6-8 weeks
Details: in vivo, po, route oral GAVAGE, vehicle .5 % CMC; for BASOPHIL / EOSINOPHIL / ERYTHROCYTE COUNT / HEMATOCRIT / HEMOGLOBIN / LEUKOCYTE COUNT / LYMPHOCYTE / MEAN CORPUSCULAR HEMOGLOBIN / MEAN CORPUSCULAR HEMOGLOBIN CONCENTRATION / MEAN CORPUSCULAR VOLUME / MONOCYTE / NEUTROPHIL / PLATELET COUNT: tissue Blood; for ALANINE AMINOTRANSFERASE / ALBUMIN / ALKALINE PHOSPHATASE / ASPARTATE AMINOTRANSFERASE / BLOOD UREA NITROGEN / CHOLESTEROL / CREATINE PHOSPHOKINASE / CREATININE / GLUCOSE / PHOSPHORUS / POTASSIUM / SODIUM / TOTAL BILIRUBIN / TOTAL PROTEIN: tissue Plasma
[1] = 0 mg/kg, 72 h, dose level Control, time 3 day
[2] = 0 mg/kg, 120 h, dose level Control, time 5 day
[3] = 45 mg/kg, 72 h, dose level High, time 3 day
[4] = 45 mg/kg, 120 h, dose level High, time 5 day
[5] = […], 72 h, dose 1.1 mg/Kg, dose level Low, time 3 day
[6] = […], 120 h, dose 1.1 mg/Kg, dose level Low, time 5 day

With `COc1cc(NC(C)CCCN)c2ncccc2c1` (configuration not stated) [PRIMAQUINE] the BASOPHIL [1] was 0%, the EOSINOPHIL [1] was 0% and the “ERYTHROCYTE COUNT” value [1] was 6.19 x10E6/uL. The HEMATOCRIT [1] was 36.94%, the HEMOGLOBIN [1] was 14.58 G/DL and the “LEUKOCYTE COUNT” value [1] was 11.54 x10E3/uL. The LYMPHOCYTE [1] was 84.8%, the “MEAN CORPUSCULAR HEMOGLOBIN” value [1] was 23.58 pg and the “MEAN CORPUSCULAR HEMOGLOBIN CONCENTRATION” value [1] was 39.44 G/DL. For the same compound, the “MEAN CORPUSCULAR VOLUME” value [1] was 59.76 fL, the MONOCYTE [1] was 1.4% and the NEUTROPHIL [1] was 13.8%. For the same compound, the “PLATELET COUNT” value [1] was 1068.8 x10E3/uL, the “ALANINE AMINOTRANSFERASE” value [1] was 38.17 u/L and the ALBUMIN [1] was 3.88 G/DL. The “ALKALINE PHOSPHATASE” value [1] was 391.33 u/L, the “ASPARTATE AMINOTRANSFERASE” value [1] was 69.83 u/L and the “BLOOD UREA NITROGEN” value [1] was 15 mg/dL. For the same compound, the CHOLESTEROL [1] was 72.17 mg/dL, the “CREATINE PHOSPHOKINASE” value [1] was 174.33 u/L and the CREATININE [1] was 0.58 mg/dL. For the same compound, the GLUCOSE [1] was 192.67 mg/dL, the PHOSPHORUS [1] was 10.52 mg/dL and the POTASSIUM [1] was 6.8 MEQ/L. For the same compound, the SODIUM [1] was 149.67 MEQ/L, the “TOTAL BILIRUBIN” value [1] was 0.78 mg/dL and the “TOTAL PROTEIN” value [1] was 6.28 G/DL. For the same compound, the BASOPHIL [2] was 0%, the EOSINOPHIL [2] was 0.17% and the “ERYTHROCYTE COUNT” value [2] was 6.72 x10E6/uL. The HEMATOCRIT [2] was 40.02%, the HEMOGLOBIN [2] was 15.83 G/DL and the “LEUKOCYTE COUNT” value [2] was 9.5 x10E3/uL. The LYMPHOCYTE [2] was 87.17%, the “MEAN CORPUSCULAR HEMOGLOBIN” value [2] was 23.57 pg and the “MEAN CORPUSCULAR HEMOGLOBIN CONCENTRATION” value [2] was 39.62 G/DL. For the same compound, the “MEAN CORPUSCULAR VOLUME” value [2] was 59.55 fL, the MONOCYTE [2] was 1.67% and the NEUTROPHIL [2] was 11%. The “PLATELET COUNT” value [2] was 1053.67 x10E3/uL, the “ALANINE AMINOTRANSFERASE” value [2] was 26.33 u/L and the ALBUMIN [2] was 4.02 G/DL. For the same compound, the “ALKALINE PHOSPHATASE” value [2] was 316.67 u/L, the “ASPARTATE AMINOTRANSFERASE” value [2] was 61.33 u/L and the “BLOOD UREA NITROGEN” value [2] was 18.67 mg/dL. For the same compound, the CHOLESTEROL [2] was 65.17 mg/dL, the “CREATINE PHOSPHOKINASE” value [2] was 161.17 u/L and the CREATININE [2] was 0.75 mg/dL. The GLUCOSE [2] was 177.33 mg/dL, the PHOSPHORUS [2] was 9.72 mg/dL and the POTASSIUM [2] was 6.18 MEQ/L. The SODIUM [2] was 150.5 MEQ/L, the “TOTAL BILIRUBIN” value [2] was 0.68 mg/dL and the “TOTAL PROTEIN” value [2] was 6.55 G/DL. The BASOPHIL [3] was 0%, the EOSINOPHIL [3] was 0.33% and the “ERYTHROCYTE COUNT” value [3] was 6.7 x10E6/uL. For the same compound, the HEMATOCRIT [3] was 40.07%, the HEMOGLOBIN [3] was 15.73 G/DL and the “LEUKOCYTE COUNT” value [3] was 10.6 x10E3/uL. For the same compound, the LYMPHOCYTE [3] was 76.67%, the “MEAN CORPUSCULAR HEMOGLOBIN” value [3] was 23.53 pg and the “MEAN CORPUSCULAR HEMOGLOBIN CONCENTRATION” value [3] was 39.3 G/DL. For the same compound, the “MEAN CORPUSCULAR VOLUME” value [3] was 59.87 fL, the MONOCYTE [3] was 2.67% and the NEUTROPHIL [3] was 20.33%. The “PLATELET COUNT” value [3] was 1053 x10E3/uL, the “ALANINE AMINOTRANSFERASE” value [3] was 83.33 u/L and the ALBUMIN [3] was 3.73 G/DL. For the same compound, the “ALKALINE PHOSPHATASE” value [3] was 304.67 u/L, the “ASPARTATE AMINOTRANSFERASE” value [3] was 358.33 u/L and the “BLOOD UREA NITROGEN” value [3] was 10 mg/dL. For the same compound, the CHOLESTEROL [3] was 77.67 mg/dL, the “CREATINE PHOSPHOKINASE” value [3] was 213.33 u/L and the CREATININE [3] was 0.67 mg/dL. It also gave a GLUCOSE [3] of 176 mg/dL, a PHOSPHORUS [3] of 11.23 mg/dL and a POTASSIUM [3] of 6.27 MEQ/L. For the same compound, the SODIUM [3] was 148.33 MEQ/L, the “TOTAL BILIRUBIN” value [3] was 0.4 mg/dL and the “TOTAL PROTEIN” value [3] was 6.03 G/DL. The BASOPHIL [4] was 0%, the EOSINOPHIL [4] was 0% and the “ERYTHROCYTE COUNT” value [4] was 5.75 x10E6/uL. For the same compound, the HEMATOCRIT [4] was 35.53%, the HEMOGLOBIN [4] was 14.07 G/DL and the “LEUKOCYTE COUNT” value [4] was 13.03 x10E3/uL. The LYMPHOCYTE [4] was 79.67%, the “MEAN CORPUSCULAR HEMOGLOBIN” value [4] was 24.47 pg and the “MEAN CORPUSCULAR HEMOGLOBIN CONCENTRATION” value [4] was 39.6 G/DL. The “MEAN CORPUSCULAR VOLUME” value [4] was 61.83 fL, the MONOCYTE [4] was 3.67% and the NEUTROPHIL [4] was 16.67%. The “PLATELET COUNT” value [4] was 778.33 x10E3/uL, the “ALANINE AMINOTRANSFERASE” value [4] was 35.67 u/L and the ALBUMIN [4] was 3.63 G/DL. For the same compound, the “ALKALINE PHOSPHATASE” value [4] was 336.33 u/L, the “ASPARTATE AMINOTRANSFERASE” value [4] was 78.67 u/L and the “BLOOD UREA NITROGEN” value [4] was 12 mg/dL. The CHOLESTEROL [4] was 67.33 mg/dL, the “CREATINE PHOSPHOKINASE” value [4] was 151.67 u/L and the CREATININE [4] was 0.57 mg/dL. It also gave a GLUCOSE [4] of 177 mg/dL, a PHOSPHORUS [4] of 10.23 mg/dL and a POTASSIUM [4] of 6.03 MEQ/L. For the same compound, the SODIUM [4] was 149 MEQ/L, the “TOTAL BILIRUBIN” value [4] was 0.47 mg/dL and the “TOTAL PROTEIN” value [4] was 5.83 G/DL. For the same compound, the BASOPHIL [5] was 0%, the EOSINOPHIL [5] was 1% and the “ERYTHROCYTE COUNT” value [5] was 5.53 x10E6/uL. The HEMATOCRIT [5] was 33.77%, the HEMOGLOBIN [5] was 13.73 G/DL and the “LEUKOCYTE COUNT” value [5] was 11.03 x10E3/uL. The LYMPHOCYTE [5] was 85%, the “MEAN CORPUSCULAR HEMOGLOBIN” value [5] was 24.87 pg and the “MEAN CORPUSCULAR HEMOGLOBIN CONCENTRATION” value [5] was 40.77 G/DL. The “MEAN CORPUSCULAR VOLUME” value [5] was 61 fL, the MONOCYTE [5] was 2% and the NEUTROPHIL [5] was 12%. For the same compound, the “PLATELET COUNT” value [5] was 1053.67 x10E3/uL, the “ALANINE AMINOTRANSFERASE” value [5] was 32.33 u/L and the ALBUMIN [5] was 3.57 G/DL. The “ALKALINE PHOSPHATASE” value [5] was 308 u/L, the “ASPARTATE AMINOTRANSFERASE” value [5] was 56.33 u/L and the “BLOOD UREA NITROGEN” value [5] was 11.67 mg/dL. For the same compound, the CHOLESTEROL [5] was 75.33 mg/dL, the “CREATINE PHOSPHOKINASE” value [5] was 161.67 u/L and the CREATININE [5] was 0.6 mg/dL. For the same compound, the GLUCOSE [5] was 178 mg/dL, the PHOSPHORUS [5] was 11.23 mg/dL and the POTASSIUM [5] was 6.57 MEQ/L. The SODIUM [5] was 148 MEQ/L, the “TOTAL BILIRUBIN” value [5] was 0.4 mg/dL and the “TOTAL PROTEIN” value [5] was 5.63 G/DL. The BASOPHIL [6] was 0%, the EOSINOPHIL [6] was 0.33% and the “ERYTHROCYTE COUNT” value [6] was 6.36 x10E6/uL. For the same compound, the HEMATOCRIT [6] was 37.73%, the HEMOGLOBIN [6] was 15.4 G/DL and the “LEUKOCYTE COUNT” value [6] was 11.63 x10E3/uL. The LYMPHOCYTE [6] was 91.33%, the “MEAN CORPUSCULAR HEMOGLOBIN” value [6] was 24.37 pg and the “MEAN CORPUSCULAR HEMOGLOBIN CONCENTRATION” value [6] was 41 G/DL. For the same compound, the “MEAN CORPUSCULAR VOLUME” value [6] was 59.37 fL, the MONOCYTE [6] was 1.33% and the NEUTROPHIL [6] was 7%. The “PLATELET COUNT” value [6] was 1065 x10E3/uL, the “ALANINE AMINOTRANSFERASE” value [6] was 27 u/L and the ALBUMIN [6] was 3.9 G/DL. For the same compound, the “ALKALINE PHOSPHATASE” value [6] was 323 u/L, the “ASPARTATE AMINOTRANSFERASE” value [6] was 65.67 u/L and the “BLOOD UREA NITROGEN” value [6] was 15.33 mg/dL. The CHOLESTEROL [6] was 71 mg/dL, the “CREATINE PHOSPHOKINASE” value [6] was 141.33 u/L and the CREATININE [6] was 0.6 mg/dL. The GLUCOSE [6] was 169.33 mg/dL, the PHOSPHORUS [6] was 10.37 mg/dL and the POTASSIUM [6] was 6.4 MEQ/L. The SODIUM [6] was 151.67 MEQ/L, the “TOTAL BILIRUBIN” value [6] was 0.43 mg/dL and the “TOTAL PROTEIN” value [6] was 6.23 G/DL.
